According to publication PMC12655551, “Design, Synthesis, and Evaluation of Pyrrole-Based Selective MAO-B Inhibitors with Additional AChE Inhibitory and Neuroprotective Properties Identified via Virtual Screening” (Pharmaceuticals, 2025):

Columns and labels:
[1] = test system: isolated rat brain synaptosomes; test: Neurotoxicity of compounds alone on isolated rat brain synaptosomes (MTT viability, GSH); format: cell-based; details: compound alone, 100 μM, vs non-treated synaptosomes
Protocol: (§1) Two types of buffers were used for the isolation of the rat brain synaptosomes and mitochondria. Buffer A was 5 mM HEPES and 0.32 M Sucrose; Buffer B was 290 mM NaCl, 0.95 mM MgCl2 × 2H2O, 10 mM KCl, 2.4 mM CaCl2 × 2H2O, 2.1 mM NaH2PO4, 44 mM HEPES, 13 mM D-Glucose. For the gradient centrifugation, Percoll reagent was used. A stock solution of 90% Percoll was used to prepare 16%, 10% and 7.5% solutions. All the solutions were used as described below. Immediately after harvesting, synaptosomes, microsomes, and mitochondria were incubated with the exam compounds for 1 h. For assessing the possible neurotoxicity of the most MAOB active compounds, the sub-cellular fractions were incubated with 100 µM of them, and for evaluating their possible neuroprotective and antioxidant activities in different models of neurotoxicity, the sub-cellular fractions were incubated with 50µM of them. The protein measurement of all the sub-cellular fractions was made by the method of Lowry et al., 1951 [57].
(§2) The synaptosomes were prepared from rat brains by multiple sub-cellular fractionation using a Percoll gradient.
(§3) After the incubation, the synaptosomes were centrifuged three times at 15,000× g for 1 min. MTT-test was performed to determine synaptosomal vitality by the method described by Mungarro-Menchaca et al..
(§4) The level of GSH was determined by measuring the non-protein SH-groups after precipitation of the proteins with trichloroacetic acid (TCA). The presence of thiols in the supernatant was determined using Elmman’s reagent. The resulting yellow color was measured spectrophotometrically (λ = 412 nm).

[2] = test system: isolated rat brain microsomes; test: Pro-oxidant effect of compounds alone on isolated rat brain microsomes (MDA); format: cell-based; details: compound alone, 100 μM, vs non-treated microsomes
Protocol: as §1
(§5) The brain was homogenized in 9 vol. of 0.1 M Tris buffer containing 0.1 mM Dithiothreitol, 0.1 mM Phenylmethylsulfonyl fluoride, 0.2 mM EDTA, 1.15% KCl, and 20% (v/v) glycerol at pH 7.4. The homogenate was centrifuged twice at 17,000× g for 30 min. […]
(§6) The quantity of the lipid peroxidation product MDA was assessed using the method described by Deby and Goutier.

[3] = test system: isolated rat brain mitochondria; test: t-BuOOH-induced oxidative stress in isolated rat brain mitochondria; format: cell-based; details: compound 50 µM with t-BuOOH 75 μM
Protocol: as §1
The mitochondria were prepared by multiple differential fractionation using a Percoll gradient.
The mitochondria were incubated with 75 μM t-BuOOH [57].
After incubation of the mitochondria, 0.3 mL 0.2% TBA and 0.25 mL sulfuric acid (0.05 M) were added to stop the reaction. The tubes were maintained at 100 °C for 30 min. In the next stage, centrifugation of the tubes was carried out at 3500× g for 10 min. Assessment of the total quantity of MDA formed in each sample was measured in the supernatant at 532 nm.
After incubation of mitochondria, 0.04% DTNB was mixed with the mitochondrial suspensions in 0.1 M phosphate buffer (pH 7.4). The absorbance of the yellow product was measured at 412 nm.

AChE = target: T1, AChE (Electrophorus electricus, UniProt O42275); test: biochemical; format: biochemical; details: for inhibition at 200 µM: 200 µM compound; for IC50: means ± SD of three experiments
T1 construct: purchased Sigma-Aldrich, Hamburg, Germany
Protocol: AChE and BChE inhibitory activity of the newly synthesized pyrrole-based compounds was measured using the microplate assay described by Ellman et al. with the modifications added by López et al.. The compounds were tested at concentrations between 0.01 and 200 μM. First, they were dissolved in phosphate buffer (PBS) (8 mM K2HPO4, 2.3 mM NaH2PO4, 0.15 M NaCl, pH 7.5), assisted by the addition of no more than 5% MeOH. Then, they were serially diluted with PBS to provide the concentration range needed. Acetylcholinesterase from Electrophorus electricus and butyrylcholinesterase from equine serum (Sigma-Aldrich, Hamburg, Germany) were used with a substrate solution of 5,5′-dithiobis(2-nitrobenzoic acid) (DTNB) with acetylthiocholine iodide (ATCI) or butyrylthiocholine iodide (BTCI), respectively (0.04 M Na2HPO4, 0.2 mM DTNB, 0.24 mM ATCI or BTCI, pH 7.5). A total of 50 μL of AChE or BChE (0.25 U/mL, in PBS) and 50 μL of the tested compound solution were added to the wells. Incubation of the plates was performed at room temperature for 30 min. Then, 100 μL of substrate solution was added to start the enzymatic reaction. […] Enzyme activity was calculated as an inhibition percentage compared to an assay including buffer instead of an inhibitor.

[4] = test system: isolated rat brain synaptosomes; test: 6-OHDA-induced neurotoxicity in isolated rat brain synaptosomes; format: cell-based; details: compound 50 µM with 6-OHDA 150 μM
Protocol: as §1, §2
This in vitro model resembles the neurodegenerative processes occurring in PD. Dopamine metabolism and oxidation led to the formation of reactive oxygen species (ROS) and reactive quinones. These processes were catalyzed by the MAOB enzyme. They induced dopamine neurotoxicity and neurodegeneration. The synaptosomes were incubated with 150 μM 6-OHDA for 1 h.
as §3, §4

[5] = test system: isolated rat brain microsomes; test: FeSO4/ascorbic acid-induced lipid peroxidation in isolated rat brain microsomes; format: cell-based; details: compound 50 μM with Fe/AA
Protocol: as §1, §5, §6

T1 sequence (O42275 24-633): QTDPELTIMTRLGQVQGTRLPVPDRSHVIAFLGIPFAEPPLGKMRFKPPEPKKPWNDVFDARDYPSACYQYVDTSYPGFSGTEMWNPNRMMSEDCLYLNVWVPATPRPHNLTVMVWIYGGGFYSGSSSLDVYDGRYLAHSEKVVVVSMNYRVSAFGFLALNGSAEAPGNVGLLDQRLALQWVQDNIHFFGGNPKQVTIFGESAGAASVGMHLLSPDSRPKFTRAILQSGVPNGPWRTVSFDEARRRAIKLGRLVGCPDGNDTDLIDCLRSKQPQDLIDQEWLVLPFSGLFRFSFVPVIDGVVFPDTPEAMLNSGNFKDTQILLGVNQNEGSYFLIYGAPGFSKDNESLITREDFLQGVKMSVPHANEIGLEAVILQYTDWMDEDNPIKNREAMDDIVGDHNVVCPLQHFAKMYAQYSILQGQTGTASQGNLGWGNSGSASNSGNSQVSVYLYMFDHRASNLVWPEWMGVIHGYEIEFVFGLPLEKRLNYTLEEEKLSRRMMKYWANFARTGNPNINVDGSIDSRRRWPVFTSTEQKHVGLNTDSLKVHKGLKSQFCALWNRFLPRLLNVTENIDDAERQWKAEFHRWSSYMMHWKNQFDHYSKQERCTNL

Row | Compound | decrease of GSH level compared to the control [1] | decrease of synaptosomal viability compared to the control [1] | increase of MDA production compared to the control [2] | decrease of MDA production compared to the toxic agent [3] | preservation of GSH level compared to toxic t-BuOOH [3] | inhibition at 200 µM (AChE) | IC50 (AChE) | fold lower AChE inhibition potency compared to EM-DC-2 (AChE; ratio of AChE potencies) | preservation of GSH level compared to toxic 6-OHDA [4] | decrease of MDA production compared to the toxic agent [5]
1 | Cc1ccc(C)n1C(Cc1cnc[nH]1)C(=O)O (stereo not shown) [EM-DC-19, 2-(2,5-dimethyl-1H-pyrrol-1-yl)-3-(2H-imidazol-4-yl)propanoic acid] | 30% | 25% | 20% | 52% | 30% | 73.98 ± 0.59% | 76.2 ± 6.12 µM | approximately 100 fold | 20% | 60%
2 | Cc1ccc(C)n1-c1ccc(CC(=O)O)cc1 [EM-DC-27, [4-(2,5-dimethyl-1H-pyrrol-1-yl)phenyl]acetic acid] | 30% | 25% | 40% | 48% | 30% | 26.5 ± 2.36% | > 200 µM |  | 20% | 56%
